For test [1], the target named is Human STING (Homo sapiens (Human), UniProt Q86WV6, H232R). The test can be described thus: Human STING TR-FRET assay. In kind it is binding. Particulars: human STING residues 140-379 (H232R), 100 nM; fluorescein labeled ligand 100 nM; 60 minutes at rt. The method, then: Human STING (accession number GB:BC047779) DNA encoding residues 140-379 (H232R) was cloned into pET28 as N-terminal HIS and C-terminal Avi tagged fusion protein, and a rTEV cleavage site between HIS tag and STING. The sequence was verified before recombinant protein expression using E. coli expression system.
Sequence of Human STING (Q86WV6 140-379 H232R): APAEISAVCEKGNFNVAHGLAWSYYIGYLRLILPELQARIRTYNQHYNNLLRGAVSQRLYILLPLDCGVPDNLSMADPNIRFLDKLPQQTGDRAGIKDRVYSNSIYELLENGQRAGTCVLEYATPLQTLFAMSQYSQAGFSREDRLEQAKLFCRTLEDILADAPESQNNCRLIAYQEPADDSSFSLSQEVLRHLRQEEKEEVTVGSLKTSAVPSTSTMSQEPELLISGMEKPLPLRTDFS
For expression, STING expression vector was transformed into BL21(DE3) cells. The expression was induced by adding IPTG and expressing in 16° C. for 20 hours.
For purification, STING was purified by Nickel affinity resin (Thermo Scientific #25215), followed by TEV enzyme cleavage and Superdex 200 column (GE Healthcare #28-9893-35) purification. For site directed in vitro biotinylation, purified Avi-tagged STING protein was incubated with Biotin (SUPELCO #47868), ATP (SIGMA #A-7699) and BirA enzyme, followed by further purification through a Superdex 200 column (GE Healthcare #28-9893-35). Biotinylation was confirmed by Mass Spectrometry analysis.
40 nL of test compounds in DMSO were added to wells in a white, 384 well microtitre plate (Greiner 784075). 2 uL STING assay buffer (PBS and 0.01% BSA) containing fluorescein labeled ligand (c[G(2′,5′)p-2′-Fluo-AHC-A(3′,5′)p]-Biolog C 195, 100 nM final) and Tb labeled Streptavidin (Streptavidin-Tb cryptate-CisBio 610SATLB) were added. Then 2 uL STING assay buffer containing STING protein (100 nM final) was added and the mixture was incubated at rt for 60 minutes. The plates were then read on a BMG PheraStar Plus reader (LanthaScreen module).
For the assay method described above, test compound percent inhibition, at various concentrations, was calculated relative to untreated and DMSO only treated samples. Compound concentration versus percent inhibition curves were fitted to generate IC50 values. One skilled in the art will appreciate that the values generated either as percentage inhibition at a single concentration or IC50 values are subject to experimental variation.

For test [2], the system named is THP1-Dual cells (Lucia luciferase under ISG54 promoter). Briefly: THP-1 Dual Lucia reporter gene assay. The class given is cell-based, human. The following applies: luminescence signal induction, 20 hours at 37° C. The method, then: THP1-Dual™ cells (InvivoGen #thpd-nfis) were derived from the human THP-1 monocyte cell line by stable integration of the Lucia luciferase gene, a secreted luciferase reporter gene, under the control of an ISG54 (interferon-stimulated gene) minimal promoter in conjunction with five interferon (IFN)-stimulated response elements. On the day of experiment, the cells were plated to a black, 384-well plate (Corning 356697) at 7500 cells/25 μl per well density in growth media (RPMI 1640, 2 mM L-glutamine, 25 mM HEPES, 10% heat-inactivated fetal bovine serum, 100 μg/mL Normocin™, 50 U/mL-50 μg/mL Pen-Strep, 10 μg/mL of blasticidin, and 100 μg/mL of Zeocin). The cell plates were dosed with 62.5 nL of the testing compounds, and then incubated at 37° C. for 20 hours. At the end of the incubation, 15 μL/well of the QUANTI-Luc™ (InvivoGen #rep-qlc1) were added, and luminescence was measured immediately using the LeadSeeker.
For the assay method described above, test compound percent luminescence signal induction, at various concentrations, was calculated relative to untreated and DMSO only treated samples. Compound concentration versus percent signal induction curves were fitted to generate EC50 values. One skilled in the art will appreciate that the values generated as EC50 values are subject to experimental variation.

pEC50, pIC50: −log10 of the molar value.

In turn, `Nc1ncnc2c1ncn2[C@@H]1O[C@@H]2CNS(=O)(=O)O[C@@H]3C[C@@H](COP(=O)(S)O[C@H]2[C@H]1F)O[C@H]3n1cc(F)c2c(=O)[nH]cnc21` (single isomer, unassigned) [Compound I-20] gave a pIC50 in test [1] above 6.00. Besides, the pEC50 in test [2] (Homo sapiens, THP1-Dual, 20 h) was 5.00 to 6.00.

As to `Nc1nc2c(ncn2[C@@H]2O[C@@H]3COS(=O)(=O)N[C@H]4[C@@H](F)[C@H](n5cnc6c(N)ncnc65)O[C@@H]4COP(=O)(S)O[C@@H]2C3)c(=O)[nH]1` (single isomer, unassigned) [Compound I-17], the pIC50 in test [1] was above 6.00. The compound also showed a pEC50 in test [2] (Homo sapiens, THP1-Dual, 20 h) above 6.00.

In test [1], `Nc1nc2c(ncn2[C@@H]2O[C@@H]3CNS(=O)(=O)O[C@H]4C[C@H](n5cnc6cncnc65)C[C@@H]4COP(=O)(S)O[C@@H]2C3)c(=O)[nH]1` (single isomer, unassigned) [Compound I-6] had a pIC50 below 4.00. In addition, in test [2] (Homo sapiens, THP1-Dual, 20 h), the pEC50 is below 4.60.

The compound `Nc1nc2c(ncn2[C@@H]2O[C@@H]3COP(=O)(S)O[C@H]4C[C@H](n5cnc6cncnc65)C[C@@H]4CNS(=O)(=O)O[C@@H]2C3)c(=O)[nH]1` (single isomer, unassigned) [Compound I-8] had a pIC50 in test [1] of 5.00 to 6.00. This compound also had a pEC50 in test [2] (Homo sapiens, THP1-Dual, 20 h) of 5.00 to 6.00.

Compound `Nc1nc2c(ncn2[C@@H]2O[C@@H]3COP(=O)(S)O[C@H]4[C@@H](F)[C@H](n5cnc6cncnc65)O[C@@H]4CNS(=O)(=O)O[C@@H]2C3)c(=O)[nH]1` (single isomer, unassigned) [Compound I-11b] gave a pEC50 in test [2] above 6.00.

Take `Nc1nc2c(ncn2[C@@H]2O[C@@H]3COP(=O)(S)O[C@H]4[C@@H](F)[C@H](n5cnc6cncnc65)O[C@@H]4CNS(=O)(=O)O[C@@H]2[C@@H]3OCC(F)(F)F)c(=O)[nH]1` (single isomer, unassigned) [Compound I-13b]: the pIC50 in test [1] is above 6.00. For the same compound, the pEC50 in test [2] was above 6.00.

The compound `Nc1nc2c(ncn2[C@@H]2O[C@@H]3COP(=O)(S)O[C@H]4[C@@H](F)[C@H](n5cnc6cncnc65)O[C@@H]4CNS(=O)(=O)O[C@@H]2[C@@H]3F)c(=O)[nH]1` (single isomer, unassigned) [Compound I-10] had a pIC50 in test [1] above 6.00. Moreover, the pEC50 in test [2] (Homo sapiens, THP1-Dual, 20 h) was above 6.00.

`Nc1nc2c(ncn2[C@@H]2O[C@@H]3COS(=O)(=O)N[C@H]4C[C@H](n5cnc6c(N)ncnc65)O[C@@H]4COP(=O)(S)O[C@@H]2C3)c(=O)[nH]1` (single isomer, unassigned) [Compound I-12b] had a pIC50 in test [1] of 5.00 to 6.00. The same compound gave a pEC50 in test [2] (Homo sapiens, THP1-Dual, 20 h) below 4.60.

Regarding `Nc1nc2c(ncn2[C@@H]2O[C@@H]3COP(=O)(S)O[C@H]4[C@@H](F)[C@H](n5cnc6c(N)ncnc65)O[C@@H]4CNS(=O)(=O)O[C@@H]2[C@@H]3F)c(=O)[nH]1` (single isomer, unassigned) [Compound I-16], in test [1], the pIC50 is above 6.00. In test [2] (Homo sapiens, THP1-Dual, 20 h), this compound had a pEC50 above 6.00.

As to `Nc1nc2c(ncn2[C@@H]2O[C@@H]3COP(=O)(S)O[C@H]4[C@@H](F)[C@H](n5cnc6c(N)ncnc65)O[C@@H]4CNS(=O)(=O)O[C@@H]2C3)c(=O)[nH]1` (single isomer, unassigned) [Compound I-4a], the pIC50 in test [1] was above 6.00. This compound also had a pEC50 in test [2] (Homo sapiens, THP1-Dual, 20 h) above 6.00.

In test [1], `Nc1nc2c(ncn2[C@@H]2O[C@@H]3COP(=O)(O)O[C@H]4C[C@H](n5cnc6c(N)ncnc65)O[C@@H]4CNS(=O)(=O)O[C@@H]2C3)c(=O)[nH]1` [Compound I-5, 2-amino-9-[(5S,7R,8R,12aR,14R,15aS)-14-(6-amino-9H-purin-9-yl)-2-hydroxy-2,10,10-trioxidodecahydro-5,8-methanofuro[2,3-m][1,3,6,9,10,11,2]tetraoxathiazaphosphacyclotetradecin-7-yl]-1,9-dihydro-6H-purin-6-one] gave a pIC50 of 5.00 to 6.00. The compound further gave a pEC50 in test [2] (Homo sapiens, THP1-Dual, 20 h) above 6.00.

In the case of `Nc1nc2c(ncn2[C@@H]2O[C@@H]3CO[P@](=O)(S)O[C@@H]4[C@@H](CNS(=O)(=O)O[C@@H]2C3)C[C@@H](n2cnc3cncnc32)[C@@H]4F)c(=O)[nH]1` (single isomer, unassigned) [Compound I-14], in test [1], the pIC50 was above 6.00. In test [2], this compound had a pEC50 above 6.00.

`Nc1nc2c(ncn2[C@@H]2O[C@@H]3COP(=O)(S)O[C@H]4[C@@H](F)[C@H](n5cnc6cncnc65)O[C@@H]4CNS(=O)(=O)O[C@@H]2[C@@H]3OCC(F)(F)F)c(=O)[nH]1` (single isomer, unassigned) [Compound I-13a] had a pIC50 in test [1] above 6.00. This compound gave a pEC50 in test [2] (Homo sapiens, THP1-Dual, 20 h) above 6.00.

For `Nc1nc2c(ncn2[C@@H]2O[C@@H]3COP(=O)(S)O[C@H]4[C@@H](F)[C@H](n5cnc6c(=O)[nH]cnc65)O[C@@H]4CNS(=O)(=O)O[C@@H]2C3)c(=O)[nH]1` (single isomer, unassigned) [Compound I-15], the pEC50 in test [2] (Homo sapiens, THP1-Dual, 20 h) was above 6.00.

`Nc1nc2c(ncn2[C@@H]2O[C@@H]3CNS(=O)(=O)O[C@H]4C[C@H](n5cnc6c(N)ncnc65)O[C@@H]4COP(=O)(O)O[C@@H]2C3)c(=O)[nH]1` [Compound I-9, 2-amino-9-[(5S,7R,8R,12aR,14R,15aS)-14-(6-amino-9H-purin-9-yl)-10-hydroxy-2,2,10-trioxidooctahydro-3H,12H-5,8-methanofuro[3,2-l][1,3,6,11,10,9,2]tetraoxathiazaphosphacyclotetradecin-7-yl]-1,9-dihydro-6H-purin-6-one]: the negative-log IC50 (pIC50) in test [1] is 4.00 to 5.00. Also, the pEC50 in test [2] (Homo sapiens, THP1-Dual, 20 h) was below 4.60.

With `Nc1nc2c(ncn2[C@@H]2O[C@@H]3COP(=O)(S)O[C@H]4[C@@H](F)[C@H](n5cnc6cncnc65)O[C@@H]4CNS(=O)(=O)O[C@@H]2C3)c(=O)[nH]1` (single isomer, unassigned) [Compound I-11a], the pIC50 in test [1] was above 6.00. The compound further showed a pEC50 in test [2] (Homo sapiens, THP1-Dual, 20 h) above 6.00.

`Nc1nc2c(ncn2[C@@H]2O[C@@H]3CNS(=O)(=O)O[C@H]4C[C@H](n5cnc6c(N)ncnc65)O[C@@H]4COP(=O)(S)O[C@@H]2C3)c(=O)[nH]1` (single isomer, unassigned) [Compound I-2a] had a pIC50 in test [1] below 4.00. Moreover, the pEC50 in test [2] was below 4.60.

`Nc1nc2c(ncn2[C@@H]2O[C@@H]3COP(=O)(S)O[C@H]4[C@@H](F)[C@H](n5cnc6c(N)ncnc65)O[C@@H]4CNS(=O)(=O)O[C@@H]2C3)c(=O)[nH]1` (single isomer, unassigned) [Compound I-4b] showed a pIC50 in test [1] above 6.00. Also, the pEC50 in test [2] was above 6.00.

The compound `Nc1nc2c(ncn2[C@@H]2O[C@@H]3COP(=O)(S)O[C@H]4C[C@H](Oc5ccncn5)C[C@@H]4CNS(=O)(=O)O[C@@H]2C3)c(=O)[nH]1` (single isomer, unassigned) [Compound I-1] gave a negative-log EC50 (pEC50) in test [2] (Homo sapiens, THP1-Dual, 20 h) below 4.60.

For `Nc1nc2c(ncn2[C@@H]2O[C@@H]3COP(=O)(O)O[C@H]4[C@@H](F)[C@H](n5cnc6c(N)ncnc65)O[C@@H]4CNS(=O)(=O)O[C@@H]2C3)c(=O)[nH]1` [Compound I-18, 2-amino-9-[(5S,7R,8R,12aR,14R,15R,15aR)-14-(6-amino-9H-purin-9-yl)-15-fluoro-2-hydroxy-2,10,10-trioxidodecahydro-5,8-methanofuro[2,3-m][1,3,6,9,10,11,2]tetraoxathiazaphosphacyclotetradecin-7-yl]-1,9-dihydro-6H-purin-6-one], the pIC50 in test [1] was above 6.00. Moreover, in test [2] (Homo sapiens, THP1-Dual, 20 h), the negative logarithm of the EC50 (pEC50) is 5.00 to 6.00.

With `Nc1nc2c(ncn2[C@@H]2O[C@@H]3CNS(=O)(=O)O[C@H]4C[C@H](n5cnc6c(N)ncnc65)O[C@@H]4COP(=O)(S)O[C@@H]2C3)c(=O)[nH]1` (single isomer, unassigned) [Compound I-2b], the pIC50 in test [1] is 4.00 to 5.00. In test [2], this compound gave a pEC50 of 4.60 to 5.00.

Regarding `Nc1nc2c(ncn2[C@@H]2O[C@@H]3COS(=O)(=O)N[C@H]4C[C@H](n5cnc6c(N)ncnc65)O[C@@H]4COP(=O)(S)O[C@@H]2C3)c(=O)[nH]1` (single isomer, unassigned) [Compound I-12a], in test [1], the pIC50 was above 6.00. This compound showed a pEC50 in test [2] (Homo sapiens, THP1-Dual, 20 h) above 6.00.

The values are drawn from patent publication US20250262298A1, “STING MODULATOR COMPOUNDS WITH SULFAMATE LINKAGES, AND METHODS OF MAKING AND USING” (TAKEDA PHARMACEUTICAL COMPANY LIMITED, priority 2018, published 2025).
